Data: patent publication US20050209278A1, “Piperidinyl- and piperazinyl-sulfonylmethyl hydroxamic acids and their use as protease inhibitors” (priority 2002, published 2005)

Each compound was assayed against T1, MMP-14 (Homo sapiens, UniProt P50281) (assay: In vitro MMP inhibition, Ki determination (fluorogenic substrate II)). Conditions: value outside parentheses; read-out: MMP-14 Ki.
T1 construct: The catalytic domain enzyme was expressed in E. coli inclusion bodies, solubilized in urea; made in house
Format: biochemical
In short: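 E. coli-expressed, refolded MMP-14 catalytic domain, activated with APMA or trypsin, in 100 mM Tris-HCl pH 7.5, 100 mM NaCl, 10 mM CaCl2, 0.05% Brij-type detergent. Apparent Ki by Morrison-equation regression of velocity vs inhibitor and enzyme concentration.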
With `O=C(NO)C1(S(=O)(=O)N2CCC(c3ccc(-c4cccnc4)cn3)CC2)CCOCC1` [Example 390] the Ki was > 10000 nM.
With `O=C(NO)C1(S(=O)(=O)N2CCC(c3ccc(-c4ccccc4)cn3)CC2)CCOCC1` [Example 392] the Ki was 1290 nM.
`O=C(NO)C1(S(=O)(=O)N2CCC(c3ccc(-c4cccs4)cn3)CC2)CCOCC1` [Example 394] gave a Ki of 931 nM.
Compound `O=C(NO)C1(S(=O)(=O)N2CCC(c3ccc(-c4ccc(C(F)(F)F)cc4)cn3)CC2)CCOCC1` [Example 395] has a Ki of 1760 nM.
Compound `CCCCc1ccc(C2CCN(S(=O)(=O)C3(C(=O)NO)CCN(CC)CC3)CC2)nc1` [Example 396] has a Ki of 7650 nM.
